Laboratory results published in US12268901B2, “Targeting cell tropism receptors to inhibit cytomegalovirus infection” (priority 2017, dated 2025).

What was measured:
Type in all cases: cell-based, Human cytomegalovirus (HCMV)
[1] = system: TB40E-GFP infection of ARPE19 cells; test: cAMP/PKA signaling pathway modulation, TB40E-GFP infection; conditions: H-89 20 μM, SQ22536 150 μM, FSK 20 μM, 2 h prior to infection, MOI=4.0, 48 hpi
Method: (§1) FIGS. 7A-C. HCMV receptor engagement and cAMP/PKA signaling. ARPE19 or OR14I1 knock down cells were pretreated with phosphokinase A (PKA) inhibitor H-89 (20 μM), adenylate cyclase antagonist, SQ22536 (150 μM), or adenylate cyclase activator, forskolin (FSK; 20 μM) for 2 h prior to TB40E-GFP infection (MOI=4.0). Cells were fixed at 48 hpi and images taken.
H-89, SQ22536 and Foskolin were purchased from Sigma-Aldrich Chemicals. Wild type ARPE19 or ARPE19 cells expressing the indicated shRNAs were treated with protein kinase A (PKA) inhibitor H-89 (20 μM), adenylate cyclase antagonist, SQ22536 (150 μM), or adenylate cyclase activator, forskolin (FSK; 20 μM) for 2 h prior to infection with TB40E-GFP (MOI=2.0). After 2 h, the medium was then replaced by the standard medium that also contained the noted small molecules. Images were taken at 2 dpi.
as §1, with “HCMV” for “FIGS. 7A-C. HCMV”, “signaling was also evaluated.” for “signaling.”, “(MOI=4.0).” for “(MOI=4.0). Cells were fixed at 48 hpi and images taken.”

[2] = system: HCMV infection of ARPE19 epithelial cells; test: Peptide blocking assay, infection of ARPE19 cells (percent GFP or IE positive cells); conditions: short peptides 150 uM preincubated with TB40E, ARPE19, MOI=2.0, 2 dpi
Method: (A) Different amounts of peptide 1 were preincubated with TB40E-GFP virus and the mixture applied to ARPE19. Viral DNA levels were quantified by qPCR. (B) The results in (A) are presented as the relative amount of viral DNA relative to the DMSO control. (C) TB40E-GFP virus was preincubated with peptide 1 (100 μg/ml), or DMSO, followed by infection of ARPE19 cells (MOI=2.0). Cells were imaged for GFP expression at 2 dpi (D2) and 7 dpi (D7). (D) TB40E-GFP or BADrUL131-GFP virus, both expressing PC, were preincubated with peptide 1 (100 μg/ml), or DMSO prior to infection of ARPE19 cells (MOI=2.0). Cells were fixed and imaged for GFP at 2 dpi. All data represent the mean of n=3 experiments+/−SD. (E) Culture media supernatants from (C) were harvested on the indicated dpi and assayed for infectious virus by plaque assay. Values indicate the mean percent infected cells of 3 independent experiments±SD. ****p<0.0001.
FIG. 9. […] TB40E-GFP encoding the viral PC or AD169 lacking PC were preincubated with peptide 1 (100 μg/ml) and then infected on ARPE19 epithelial cells or HEL fibroblasts (MOI=2.0). Cells were fixed, permeabilized, stained for DNA, immunostained for anti-immediate early protein (IE) and imaged. […] Values indicate the mean percentage of infected cells of n=3 experiments±SD. **p<0.01; ***p<0.001.
FIG. 11. Each of the short peptides (aa sequences listed in Table 4; 150 uM), Peptide 1 (32.6 μM), or DMSO alone was preincubated with TB40E virus, followed by infection of ARPE19 cell lines (MOI=2.0). Cells were fixed and imaged for GFP and DNA at 2 dpi. Quantitation data indicating the percent GFP positive cells.
Live cell images: Phase and GFP signal images were captured on a Zeiss microscope (Zeiss AxioObserver Z1) at 10× magnification. Fixed cell images: cells were washed with PBS (Life Technologies) and fixed with 4% formalin in PBS (Sigma). DNA was stained with Hoechst 33342 dye (Life Technologies). The fixed cells were imaged using an Image Xpress Micro (IXM, Molecular Devices) at 4× magnification. Images were analyzed with MetaXpress imaging software (Molecular Devices) to determine the total cells per well and the percentage of infected cells (GFP positive) in each well. For IE immunostaining: fixed cells were permeabilized with 0.2% Triton X-100 (Sigma) in PBS. Blocking was performed with 1% BSA (Calbiochem, 2930) in PBS with 0.3M glycine (Sigma). Cells were then incubated in antibody targeting the major IE proteins (IE, EMD Millipore, MAB8131) diluted in 1% BSA in PBS. Cells were then incubated in secondary antibody (Texas Red-conjugated goat anti-mouse IgG2A, Southern Biotech, 1080-07) in PBS containing 1% BSA.
At 2 dpi with HCMV TB40E-GFP virus at the indicated MOI, ARPE19 cells were fixed with 4% formaldehyde and nuclei stained with Hoechst 33342. ARPE19 cells were imaged on an automated IXM scanning microscope. Numbers of infected cells were determined by calculating the percent GFP positive cells using MetaXpress software.
The noted synthetic peptides (100 ug/ml each or as described) were mixed with TB40E-GFP virus (1.2×10^6 PFU) and incubated at 37° C. for 2 h by rocking. The resulting samples were then subjected to the virus binding or infection assay.

[3] = system: HCMV Ad169 infection of HEL fibroblasts; test: shRNA knockdown HEL fibroblasts infected with Ad169; conditions: MOI=1.0, 48 hpi
Method: (§2) Each shRNA was cloned into the pLKO.1-blast (Addgene) lentiviral vector followed by viral packing and multiple rounds of amplification in 293T cells. Essentially, the pLKO.1-blast constructs and packaging plasmids were co-transfected into 293T cells with the resulting supernatant harvested at 36 h. Lentiviruses were recovered by ultracentrifugation for 2 h at 28,000 rpm in a Beckman SW28 rotor and resuspensed in DMEM. The lentiviruses were used to transduce the ARPE19 or HEL cells to generate shRNA knock down cells. Populations of stable cells were selected with blasticidin (Invitrogen, 10 μg/ml) for 1 week.
(§3) The role of these proteins in fibroblast cell-type specific tropism in HCMV infection was also evaluated. The sgRNA knock out HEL-cas9 fibroblast pools were infected with HCMV Ad169 virus at MOI=3, and images were taken 48 hpi. […] HCMV infection resistance was also evaluated after knockdown using shRNA, in epithelial cells. The shOR14I1, shDMBT1 or shPDGFRA shRNA knock down ARPE19 cells were infected with TB40E-GFP virus at MOI=0.1, and images were taken 48 hpi. […] Actin is included as a loading control. Resistance to CMV infection was also evaluated in shPDGFRA, shOR14I1 or shDMBT1 knockdown HEL fibroblasts. Fibroblasts were infected with Ad169 at M01=1.0, and images were taken 48 hpi. […] Western blotting was used to confirm the depletion of PDGFRA and OR14I1 in the cells used in the experiments shown in FIG. 2H; the results are shown in FIG. 2I.

[4] = system: TB40E-GFP entry into ARPE19 cells; test: Cell-internalized virus assay in shRNA transduced ARPE19 cells; conditions: shRNA transduced ARPE19, TB40E-GFP MOI of 2.0, on ice 1 h then 37° C. for 2 h
Method: In parallel to the virus binding assay, a subset of plates were then shifted to 37° C. for 2 h to allow virus entry. […] After 10 cold PBS washes, internalized viral DNA levels were quantified by qPCR.
To determine whether human OR14I1 and DMBT1 are required for optimal binding of HCMV TB40E-GFP to cells, shPDGFRA, shOR14I1 and shDMBT1 transduced ARPE19 cells were infected with TB40E-GFP at an MOI of 2.0 on ice for 1 h. The cells were washed ten times with cold PBS, and viral DNA associated with the cells was quantified by qPCR. As shown in FIGS. 3A-B, OR14I1 and DMBT1 are required for optimal binding of HCMV TB40E-GFP to cells. In addition, shPDGFRA, shDMBT1 and shOR14I1 transduced ARPE19 cells were infected with TB40E-GFP at an MOI of 2.0 on ice for 1 h. The cells were then shifted to 37° C. for 2 h to allow the virus entry. […] After 10 cold PBS washes, internalized viral DNA levels were quantified by qPCR.

[5] = system: TB40E-GFP infection of ARPE19 cells; test: shRNA knock down ARPE19 cells infected with TB40E-GFP; conditions: for percentage of GFP positive cells (flow cytometry): shRNA knock down ARPE19, TB40E-GFP, 48 hpi; for resistance to TB40E-GFP infection (GFP images): shRNA knock down ARPE19 cells, MOI=0.1, 48 hpi
Method: as §2
48 h after HCMV TB40E-GFP infection, ARPE19 cells were then treated with cell dissociation buffer (Gibco) and incubated at 37° C. for 10 min. Samples were then washed three times with cold buffer and fixed with cold 2% paraformadehyde in PBS. Cells were pelleted and washed and resuspended in washing buffer (0.1% tween-20 in PBS). Finally, the cells were resuspended in staining buffer (1% BSA, 0.1% sodium azide in HBSS) after pelleting again and immunofluorescent cells analyzed using a MACSQUANT analyzer 10 (Miltenyi Biotec) using blue laser 488 nm and filter 525/50 nm. Results were analyzed using FLOWJO V9.9 image analysis software.
as §3

| Compound | ability to inhibit HCMV infection (percent GFP positive cells) [2] | resistance to Ad169 infection [3] | internalized viral DNA, viral load as compared to control-infected cells [4] | percentage of GFP positive cells (flow cytometry) [5] | resistance to TB40E-GFP infection (GFP images) [5] | also measured |
| --- | --- | --- | --- | --- | --- | --- |
| O=S(=O)(NCCNC/C=C/c1ccc(Br)cc1)c1cccc2cnccc12 [Peptide H-89] |  |  |  |  |  | infectivity of TB40E-GFP in ARPE19 epithelial cells [1]: reduced infectivity significantly |
| Nc1ncnc2c1ncn2C1CCCO1 (stereo not drawn) [SQ22536, 9-(Tetrahydro-2-furanyl)-9H-purin-6-amine] |  |  |  |  |  | infectivity of TB40E-GFP in ARPE19 epithelial cells [1]: reduced infectivity significantly |
| EFLLMEFSGIWEL (OR14I1 peptide 9-21aa) | some inhibition |  |  |  |  |  |
| FLLMEFSGIWELQ (OR14I1 peptide 10-22aa) | best activity |  |  |  |  |  |
| GCAGAAGCTCCATCTCTTATC (expressed or natural sequence) [shOR14I1, shRNA targeting OR14I1, in pLKO.1-blast lentiviral vector] |  | not | about 50% | significant decrease in GFP-expressing cells | resistance was seen |  |
| GCCTTTGTACCTCTAGGAATG (expressed or natural sequence) [shPDGFRA, shRNA targeting PDGFRA, in pLKO.1-blast lentiviral vector, reference compound] |  | resistant to infection | about 50% | significant decrease in GFP-expressing cells | resistance was seen |  |
| GGAGTCAACTGTAGCAGAAGG (expressed or natural sequence) [shDMBT1, shRNA targeting DMBT1, in pLKO.1-blast lentiviral vector] |  | not | about 50% | significant decrease in GFP-expressing cells | resistance was seen |  |
| LLMEFSGIWELQV (OR14I1 peptide 11-23aa) | best activity |  |  |  |  |  |
| LMEFSGIWELQVL (OR14I1 peptide) [Peptide 12-24] | best activity |  |  |  |  |  |
